Results taken from patent publication US12480075B2, “Perfume delivery system” (FIRMENICH SA, priority 2019, dated 2025).

test: Odor threshold concentration (Log T / Log ODT) by gas chromatograph sniff port with panelists; set-up: species or system human; conditions: common logarithm of odor threshold concentration of the ingredient
Procedure: “High impact perfume raw materials” should be understood as perfume raw materials having a Log T<−4. The odor threshold concentration of a chemical compound is determined in part by its shape, polarity, partial charges and molecular mass. For convenience, the threshold concentration is presented as the common logarithm of the threshold concentration, i.e., Log [Threshold] (“Log T”).
The odor threshold concentration of a perfuming compound is determined by using a gas chromatograph (“GC”). Specifically, the gas chromatograph is calibrated to determine the exact volume of the perfume oil ingredient injected by the syringe, the precise split ratio, and the hydrocarbon response using a hydrocarbon standard of known concentration and chain-length distribution. The air flow rate is accurately measured and, assuming the duration of a human inhalation to last 12 seconds, the sampled volume is calculated. […] To determine the threshold concentration, solutions are delivered to the sniff port at the back-calculated concentration. A panelist sniffs the GC effluent and identifies the retention time when odor is noticed. The average across all panelists determines the odor threshold concentration of the perfuming compound. The determination of odor threshold is described in more detail in C.

Molecule | Log ODT
(+−)-(3E)-3-METHYL-4-(2,6,6-TRIMETHYL-2-CYCLOHEXEN-1-YL)-3-BUTEN-2-ONE (A) + (+−)-(1E)-1-(2,6,6-TRIMETHYL-2-CYCLOHEXEN-1-YL)-1-PENTEN-3-ONE (B) | <−4
CCCCCCOC(C)=O [HEXYL ACETATE] | >−4
CC(=O)O[C@@H]1CC2CC[C@]1(C)C2(C)C [(1R,2R)-1,7,7-TRIMETHYL-BICYCLO[2.2.1]HEPT-2-YL ACETATE] | >−4
C=CC(C)CCCC(C)(C)O (racemic) | >−4
CC1(C)CCC[C@]2(C)[C@H]3CCO[C@]3(C)CC[C@@H]12 [(−)-(3AR,5AS,9AS,9BR)-3A,6,6,9A-TETRAMETHYLDODECAHYDRONAPHTHO[2,1-B]FURAN] | <−4
CC(C)=CCCC(C)CC=O (racemic) | >−4
C/C=C/C(=O)[C@@H]1[C@@H](C)C=CCC1(C)C (racemic) | <−4
(2Z)-1,1-DIETHOXY-3,7-DIMETHYL-2,6-OCTADIENE (A) + (2E)-1,1-DIETHOXY-3,7-DIMETHYL-2,6-OCTADIENE (B) | >−4
CCCCC[C@H]1C(=O)CC[C@@H]1CC(=O)OC (racemic) [METHYL 2-((1RS,2RS)-3-OXO-2-PENTYLCYCLOPENTYL)ACETATE] | >−4
CC12CCC(CC1)C(C)(C)O2 | >−4
CCCCCCCC1CCC(=O)O1 (racemic) [(+−)-5-HEPTYLDIHYDRO-2(3H)-FURANONE] | <−4
CC1=CCC2C[C@@H]1C2(C)C (single isomer, unassigned; (-)) | >−4
COc1nccnc1CCCC(C)C | <−4
COc1ccc(C)cc1 [1-METHOXY-4-METHYLBENZENE] | >−4
CC(C)=CCCC(C)C=O (racemic) | >−4
TRICYCLO[5.2.1.0~2,6~]DEC-3-EN-8-YL ACETATE (A) + TRICYCLO[5.2.1.0~2,6~]DEC-4-EN-8-YL ACETATE (B) | >−4
(+−)-4-METHYLENE-2-PHENYLTETRAHYDRO-2H-PYRAN (A) + (+−)-4-METHYL-6-PHENYL-3,6-DIHYDRO-2H-PYRAN (B) + (+−)-4-METHYL-2-PHENYL-3,6-DIHYDRO-2H-PYRAN (C) | <−4
O=C1CCCCCCCCCCCCCCO1 [OXACYCLOHEXADECAN-2-ONE] | >−4
CCCCCCCCCC=O [DECANAL] | >−4
CC1=CC2CC(C=O)C1CC2C(C)C (stereo not drawn) [8-ISOPROPYL-6-METHYL-BICYCLO[2.2.2]OCT-5-ENE-2-CARBALDEHYDE] | <−4
c1ccc(Oc2ccccc2)cc1 [1,1′-OXYDIBENZENE] | >−4
CC(=O)/C=C/C1=C(C)CCCC1(C)C | <−4
2-METHYLBUTYL SALICYLATE (A) + PENTYL SALICYLATE (B) | >−4
CC/C=C\CCOC(C)=O [(Z)-3-HEXENYL ACETATE] | >−4
.ALPHA.-DIHYDROTERPINEOL (A) + .BETA.-DIHYDROTERPINEOL (B) | >−4
CC/C=C(\C)C(O)CCCCC (racemic) [(+−)-(E)-4-METHYL-3-DECEN-5-OL] | >−4

Molecule | Log ODT
CC1=CCC(C(C)(C)S)CC1 (racemic) [(+−)-2-(4-METHYL-3-CYCLOHEXEN-1-YL)-2-PROPANETHIOL] | <−4
1-OXA-12-CYCLOHEXADECEN-2-ONE (A) + 1-OXA-13-CYCLOHEXADECEN-2-ONE (B) | >−4
CCCCCCCCCC(C)C=O (racemic) [(+−)-2-METHYLUNDECANAL] | <-4
C=CC(C)(CCC=C(C)C)OC(C)=O (racemic) [(+−)-1,5-DIMETHYL-1-VINYL-4-HEXENYL ACETATE] | >−4
CC(C)c1cccc(C(C)CC=O)c1 (racemic) [(+−)-3-(3-ISOPROPYL-1-PHENYL)BUTANAL] | <−4
3-(4-ETHYLPHENYL)-2,2-DIMETHYLPROPANAL (A) + 3-(2-ETHYLPHENYL)-2,2-DIMETHYLPROPANAL (B) | >−4
CCOC(=O)C(C)CC (racemic) [(+−)-ETHYL 2-METHYLBUTANOATE] | >−4
CC(=O)OCCc1ccccc1 [2-PHENYLETHYL ACETATE] | >−4
3,7-DIMETHYL-2,6-NONADIENENITRILE (A) + 3,7-DIMETHYL-3,6-NONADIENENITRILE (B) | >−4
CCCCCCCC=O [OCTANAL] | >−4
(1RS,2RS)-2,4-DIMETHYL-3-CYCLOHEXENE-1-CARBALDEHYDE (A) + (1RS,2SR)-2,4-DIMETHYL-3-CYCLOHEXENE-1-CARBALDEHYDE (B) | >−4
COCCc1ccccc1 [(2-METHOXYETHYL)BENZENE] | >−4
CCCCCCCCCC(C)=O [Microcapsules 2-UNDECANONE, 2-UNDECANONE] | >−4
CC(=O)OCCC(C)CCC=C(C)C (stereo not drawn) [3,7-DIMETHYL-6-OCTENYL ACETATE] | >−4
CC/C=C\CCOC(=O)C(C)C [(Z)-3-HEXENYL ISOBUTYRATE] | >−4
(2RS,4SR)-4-METHYL-2-(2-METHYL-1-PROPEN-1-YL)TETRAHYDRO-2H-PYRAN (A) + (2RS,4RS)-4-METHYL-2-(2-METHYL-1-PROPEN-1-YL)TETRAHYDRO-2H-PYRAN (B) | >−4
CC(C)CCCC(C)CCO (racemic) | >−4
C=CCCC(=O)C1=CCCC(C)(C)C1 | <−4
CCCCCCOC(=O)c1ccccc1O [HEXYL 2-HYDROXYBENZOATE] | >-4
(+)-(3S)-3-[(1R)-4-METHYL-3-CYCLOHEXEN-1-YL]BUTANAL (A) + (+)-(3R)-3-[(1R)-4-METHYL-3-CYCLOHEXEN-1-YL]BUTANAL | >−4
(2Z)-2-TRIDECENENITRILE (A) + (3Z)-3-TRIDECENENITRILE (B) + (3E)-3-TRIDECENENITRILE (C) + (2E)-2-TRIDECENENITRILE (D) | <−4
10-UNDECENAL (A) + (9E)-9-UNDECENAL (B) + (9Z)-9-UNDECENAL (C) | <−4
CC1(C)CC=C(CCC=O)CC1 | >−4
COc1ccc2ccccc2c1 [2-METHOXYNAPHTHALENE] | <−4
3,5,6-TRIMETHYL-3-CYCLOHEXENE-1-CARBALDEHYDE (A) + 2,4,6-TRIMETHYL-3-CYCLOHEXENE-1 -CARBALDEHYDE (B) | >−4
